The conditions of data set [1]: patients with solid tumors, up to maximum tolerated dose; cited from earlier work.
Data set [2] relates to G4 sequences (telomere, MYC, KIT, rRNA oligos). Nature of the data set: Modified FRET assay, melting of G-quadruplex oligos. The data set is classed as binding, human. Conditions: FIG. 13C; COMPOUND I data at 6-hour incubation. As to the method: FRET assay and data analysis was performed as described previously and modified by using dual labeled (5′ FAM-3′ BHQ1) single-stranded oligos. Melting temperature of each oligo was assessed in the presence of vehicle DMSO or escalating concentrations of COMPOUND I, Fe(COMPOUND I)3, CX-5461, or TMPyP4 using a Roche LightCycler 96 [at 37° C. for 300 seconds followed by temperature increased in […] intervals up to 91° C. (25 steps) with 300-second total incubation time at each temperature]. Drug and oligo reaction mixes were analyzed immediately or incubated for 6 hours at room temperature and then analyzed. […] COMPOUND I data are presented for 6-hour time point.
The ability of COMPOUND I (parental monomeric form of the drug) and Fe(COMPOUND I)3 to bind and stabilize G4 sequences using a modified FRET assay was evaluated (FIGS. 21 and 22). TMPyP4, a well-known G4 ligand, and CX-5461, a clinical stage molecule recently reported to have G4-binding properties, were utilized as controls to assess the specificity of COMPOUND I and Fe(COMPOUND I)3 for G4-stabilizing activity.

Data set [3] has as its system MV4-11, EOL1, or KG-1 cells. As to the kind of experiment: Detection of reactive oxygen species (molecular sensors, GSH changes). The data set is classed as cell-based. The source says: In addition, cells harboring BRCA1/2 mutations are hypersensitive to COMPOUND I, further supporting a role for DNA damage in COMPOUND I mechanism of action. COMPOUND I consistently produced upregulation of CDKN1A, which mediates arrest in G0-G1. In addition, CDKN1A can be induced after DNA double-strand breaks to block cell-cycle progression to allow for sufficient time to repair DNA. In combination with CDKN1A induction, COMPOUND I increased KLF4 gene expression in many AML cell lines, which is known to regulate CDKN1A as part of the G1 cell-cycle checkpoint. […] The role of KLF4 in COMPOUND I mechanism of action is of interest for future studies.

Data set [4] deals with DNA double strand breaks in CAOV3 cells. Nature of the data set: Neutral comet assay. The data set is classed as cell-based, human. As to the method:
Comet assay kits were purchased from Trevigen (Gaithersburg, Md.) and neutral comet assay was performed according to the manufacturer's instructions. Images were collected with a Keyence Fluorescent Microscope (Keyence America, Itasca, Ill.) and quantitated with OpenComet software.
The structure of COMPOUND I is similar to drugs that bind to quadruplex structures in DNA which results in strand breaks; this led to the investigation of whether COMPOUND I caused damage to DNA. The parental Raji cells were treated with 0.5 μM COMPOUND I for increasing periods of time and induction of DNA damage was assessed by accumulation of the phosphorylated forms of ATM and γH2AX measured by Western blot analysis. […] Raji cells have very small nuclei making it difficult to quantify the formation of γH2AX foci, so the human ovarian carcinoma cell line CAOV3 was used for this purpose. […] Evidence of DNA damage was further strengthened by the results of the neutral comet assay which mainly detects DNA double strand breaks (FIG. 2D).

The test system of another data set is MV4-11. As to the kind of experiment: Cytotoxicity study (MTS). The data set is classed as cell-based. As to conditions: Homo sapiens. As to the method:
EOL-1, GRANTA-519, Jeko-1, Jurkat, Molm-13, NOMO-1, SKM-1, and SU-DHL-6 were obtained from Leibniz-Institut DSMZ. HL-60, KG-1, Mino, MV4-11, Raji, and THP-1 were obtained from ATCC. HEL92.1.7 were obtained from the European Collection of Authenticated Cell Cultures and Ramos cells were a gift from Dr. M. Andreeff (MD Anderson Cancer Center, Houston, Tex.). All cells were cultured in complete media as per the manufacturer's instructions. Early passage cells were collected and frozen within 1 month of receipt from the manufacturer. All experiments were performed on early passage cells within 6 weeks of thawing. MycoScope Mycoplasma Detection Kit (Genlantis catalog #MY01050) was used to screen for potential contamination every 6 months. Peripheral blood mononuclear cells (PBMC) were isolated from fresh healthy donor blood using Ficoll-Paque PLUS (GE Healthcare, catalog #17-1440-02). For synthesis of COMPOUND I free base, 10-phenanthroline-5,6-dione (1.2 equivalents), acetic acid (22 volumes), 2-methyl-5-fluoroindole-3-carboxaldehyde (1.0 equivalents), and ammonium acetate (15 equivalents) were reacted under medium agitation while heated at 95±5° C. for 3 to 7 hours. The reaction was cooled to between 20° C. and 25° C., filtered, rinsed with acetic acid and ethanol, and dried with N2 purge, followed by a wash with 2:1 ethanol:water at 65° C. for 4 hours, cooling to 20° C. to 25° C., filtration, rinsing with 2:1 ethanol:water and EtOAc, and then dried with N2 purge. The purity by HPLC was 99.5%, and the structural identity was confirmed by FT-IR, ^1HNMR, ^13C NMR, and LC/MS. For Fe(COMPOUND I)3 synthesis, five molar equivalents of ferrous ion FeSO4 in water was added to COMPOUND I dissolved in ethanol. The deep red precipitate produced, Fe(COMPOUND I)3, was collected and dissolved in DMSO and characterized by HPLC and mass spectrometry as >95% pure. CX-5461 (7) was purchased from MedChem Express (catalog #HY-13323).
[…] Cell viability was measured using CellTiter 96 AQueous one solution (MTS) cell proliferation assay (Promega, catalog #G3581), and IC50 values were calculated using GraphPad Prism 7 software.

Data set [5] relates to AML cell lines and various forms of lymphoma cell lines. Nature of the data set: Cytotoxicity study (MTS), cell line panel. It is filed as cell-based. As to conditions: inhibition of proliferation; read-out: IC50 values, range over cell lines. As to the method:
Cells were plated and treated with vehicle DMSO or COMPOUND I (10 concentrations) in 96-well plates for 5 days at 37° C. and 5% CO2. Cell viability was measured using CellTiter 96 AQueous one solution (MTS) cell proliferation assay (Promega, catalog #G3581), and IC50 values were calculated using GraphPad Prism 7 software.
Previous studies reported upregulation of KLF4 and CDKN1A expression as a potential mechanism of APT0-COMPOUND I activity in tumors. […] The upregulation of CDKN1A mRNA increased with duration of exposure in all AML cell lines tested (FIGS. 15D and 15E). At later time points, CDKN1A expression began to decrease, likely due to increasing cell death. Induction of CDKN1A expression is typically associated with a subsequent G0-G1, cell-cycle arrest, which was observed following COMPOUND I treatment of solid tumor lines.

The values below come from US11149047B2, “Aryl imidazoles for treatment of cancer” (Aptose Biosciences Inc., priority 2017, dated 2021).

Molecules are shown by their SMILES. “Also recorded” adds a separate entry of the source. Read-outs that look alike come from different tables or passages of the source.

The IC50 is the concentration at which inhibition is half-maximal. Take `Cc1[nH]c2ccc(F)cc2c1-c1nc2c3cccnc3c3ncccc3c2[nH]1` [COMPOUND I, 2-(5-fluoro-2-methyl-1H-indol-3-yl)-1H-imidazo[4,5-f][1,10]phenanthroline]: the myelosuppression result in data set [1] is “did not produce myelosuppression; also recorded: does not produce myelosuppression”. For the same compound, the “stabilization of G4 sequences (ΔT1/2)” value in data set [2] was “time-dependent stabilization of G4 motifs, but it demonstrated the greatest propensity for stabilizing the MYC G4 sequences”. Also, the “generation of reactive oxygen species” value in data set [3] is “no such species have been detected”. Further, the “tail DNA vs DMSO” value in data set [4] (0.5 μM, 6 h) is reported as “no increase in tail DNA”. For the same compound, the “DNA in comet tails” value in data set [4] (6 h treatment then 18 h drug free media (pulse-chase)) is on record as “significantly more DNA in the comet tails”. For the same compound, the IC50 is 0.24 µM in the data set on MV4-11 (MV4-11, 120 h, AML, 5 days, read-out: IC50 (μM) Mean); 0.47 µM with MV4-11 (MV4-11, exposure 48 hours, read-out: IC50); 0.4 µM in the data set with MV4-11 (MV4-11, exposure 72 hours, read-out: IC50); 0.24 µM in the data set with MV4-11 (MV4-11, exposure 120 hours, read-out: IC50); 57 to 1750 nM in data set [5].
